US4774248A, “Methods of treating depression and depressive states using 5-phenyl-1,4,5,6-tetrahydropyrimidine derivatives” (priority 1985, dated 1988)
Entries after “also recorded” stand apart in the source; their conditions may differ.

Legend:
[1] = test system: stereotypies induced by amphetamine; assay: Interaction with amphetamine (rats); format: in vivo; conditions: i.p.; amphetamine 2 mg/kg
Procedure: (§1) The results of toxicological and neuropsychopharmacological tests which were carried out with the products according to the invention have been summarized below. In these tests, solutions of the said products in distilled water were administered intraperitoneally in a volume of 20 ml/kg to male mice and in a volume of 5 ml/kg to male rats.
Amphetamine (2 mg/kg) is injected intraperitoneally into groups of 6 rats 30 minutes after the administration of CRL 41 378.

anesthetized dogs [2] = assay: Cardiovascular study in anesthetized dogs; format: in vivo
Procedure: Groups of 2 adult dogs (each weighing 10 to 18 kg), anesthetized with nembutal, receive each test product (i) by intraduodenal administration at successive doses of 0.1 mg/kg, 0.5 mg/kg, 1 mg/kg, 2.5 mg/kg, 5 mg/kb, 10 mg/kg and 20 mg/kg, and then (ii) if appropriate, by intravenous administration at a dose of 10 mg/kg. The effects of 10 μg/kg of isoprenaline and/or 2 μg/kg of norepinephrine after the intraduodenal administration of a cumulative dose of 39.1 mg/kg are also assessed.
The following are measured: the total arterial blood pressure, the diastolic arterial blood pressure, the heart rate, the blood flows through the femoral and cerebral arteries and saphenous veins, the rectal temperature, the skin temperature and the pressure of the gases (essentially O2) dissolved in the arterial blood.

mice [3] = assay: Overall behavior and reactivities in mice; format: in vivo; conditions: i.p.
Procedure: as §1
(§2) Groups of 3 animals are observed before and then 0.25 h, 0.50 h, 1 h, 2 h, 3 h and 24 h after the administration of CRL 41 378. The following observations are made:
(§3) Groups of 3 animals are observed before and then 0.25 h, 0.50 h, 1 h, 2 h, 3 h and 24 h after the administration of CRL 41 329.

[4] = test system: hypothermia induced by apomorphine; assay: Interaction with apomorphine by gastric administration; format: in vivo; conditions: Mus musculus, male mice, apomorphine 16 mg/kg s.c., read-out: dose as from which the hypothermia induced by apomorphine is opposed
Procedure: Each test product is administered gastrically to male mice, in a volume of 20 ml/kg, 0.50 h before the subcutaneous injection of 16 mg/kg of apomorphine.

rats = assay: Overall behavior and reactivities in rats; format: in vivo; conditions: i.p.
Procedure: as §1, §2, §3

male mice = assay: Acute toxicity, intraperitoneal (LD0, LD30, LD60, LD100); format: in vivo
Procedure: as §1

[5] = test system: depressions and depressive states; assay: Clinical trials in depression and depressive states; format: in vivo, human; conditions: daily oral administration to adults
Procedure: The clinical trials which have been undertaken have made it possible to determine that the daily dose to be administered orally to adults, in the treatment of depressions and depressive states, is generally between 3 and 120 mg for the products of the formulae Ia and Ib according to the invention.

[6] = test system: hypothermia, righting behavior and stereotypies induced by apomorphine; assay: Interaction with apomorphine in mice; format: in vivo; conditions: i.p.
Procedure: as §1
CRL 41 378 is administered to groups of 6 mice 30 minutes before the subcutaneous injection of 1 or 16 mg/kg of apomorphine.

anesthetized dogs [7] = assay: Cardiovascular study in anesthetized dogs; format: in vivo; conditions: intraduodenal
[8] = test system: central nervous system (CNS); assay: Neuropsychopharmacological profile (conclusions of the tests); format: in vivo, mice and rats
Procedure: as §1

pregnant rabbits = assay: Teratogenic effects on pregnant rabbits; format: in vivo
mice [9] = assay: Behavioral despair (forced immersion); format: in vivo; conditions: mice which have been forcibly immersed, i.p.
Procedure: as §1
Half an hour after they have received CRL 41 378, groups of 6 mice are placed in a beaker filled with water to a height of 6 cm. The total period of immobility between the 2nd and 6th minutes following immersion is noted.

mice [10] = assay: Motility reduced by hypoxic aggression (acute hypobaric anoxia); format: in vivo; conditions: i.p.
Procedure: In these tests, solutions of the said products in distilled water were administered intraperitoneally in a volume of 20 ml/kg to male mice and in a volume of 5 ml/kg to male rats.

[11] = test system: hypothermia and ptosis induced by reserpine; assay: Interaction with reserpine; format: in vivo; conditions: mice, i.p.; reserpine 2.5 mg/kg
Procedure: as §1
Four hours after the intraperitoneal injection of 2.5 mg/kg of reserpine, groups of 12 mice receive CRL 41 378.

[12] = test system: hypothermia, trembling and peripheral cholinergic symptoms induced by oxotremorine; assay: Interaction with oxotremorine; format: in vivo; conditions: mice, i.p.; oxotremorine 0.5 mg/kg
Procedure: as §1
CRL 41 378 is administered to groups of 6 mice 0.5 h before the intraperitoneal injection of 0.5 mg/kg of oxotremorine.

mice [13] = assay: Electric shock; format: in vivo; conditions: i.p.
Procedure: as §1
The test is performed on groups of 10 mice 30 minutes after the administration of CRL 41 378.

mice [14] = assay: Asphyxiant anoxia caused by gallamine triiodoethylate; format: in vivo; conditions: i.p., gallamine triiodoethylate 32 mg/kg
Procedure: as §1
Groups of 10 mice receive CRL 41 378 30 minutes before the intraperitoneal administration of 32 mg/kg of gallamine triiodoethylate (reference curarizing agent).

[15] = test system: trembling and head twitches induced by 5-hydroxytryptophan (5-HTP); assay: Interaction with 5-hydroxytryptophan in association with an MAOI (nialamide); format: in vivo, male mice
Procedure: The purpose of the procedure used is to investigate the activity of each product according to the invention as regards the trembling induced by 5-hydroxytryptophan (5-HTP) in association with an MAOI (in this case nialamide).
Each test product, in solution in distilled water, is administered intraperitoneally in a volume of 20 ml/kg to male mice.
Groups of 10 mice receive nialamide (20 mg/kg, administered gastrically) at time T-18 h, each test product at time T-0.5 h and then (±)-5-HTP (20 mg/kg, administered intraperitoneally) at time T. Immediately after the injection of the (±)-5-HTP, the mice are individually placed in transparent plastic boxes. The generalized trembling, the partial trembling and the head twitches are noted on a yes/no basis for 2 h.

mice [16] = assay: Intergroup aggressiveness; format: in vivo; conditions: mice, i.p.
Procedure: as §1
After they have stayed for 3 weeks in the two halves of a cage divided by an opaque partition, groups of 3 mice receive CRL 41 378. Half an hour later, the two groups from the same cage are brought together by removal of the partition and the number of fights which occur in 10 minutes is noted.

chicken embryos = conditions: D. G. UPSHALL, Teratology, 1972; cited from earlier work
[17] = i.p., nialamide + (±)-5-HTP, male mice

In the case of `Cl.Fc1ccccc1C1CN=CNC1` (centres unmarked) [CRL 41 329, 5-(2-fluorophenyl)-1,4,5,6-tetrahydropyrimidine hydrochloride], the “action on stereotypies induced by amphetamine” value [1] is reported as “potentiates the stereotypies induced by amphetamine”, the rectal temperature (anesthetized dogs [2]) is reported as “increases the rectal temperature” and the skin temperature (anesthetized dogs [2]) is reported as “increases the rectal temperature and skin temperature”. The arterial blood pressure (anesthetized dogs [2]; intraduodenal) was “tends to increase the arterial blood pressure”, the heart rate (anesthetized dogs [2]; intraduodenal) was “decrease the heart rate” and the mydriasis and salivation (anesthetized dogs [2]; intraduodenal) was “causes mydriasis and substantial salivation”. The respiratory arrhythmia (anesthetized dogs [2]; intraduodenal) was “causing respiratory arrhythmia”, the effects of isoprenaline (anesthetized dogs [2]; isoprenaline 10 μg/kg) was “does not cause a distinct modification of the effects of isoprenaline on the diastolic arterial blood pressure and the heart rate” and the “hypertension induced by norepinephrine” value (anesthetized dogs [2]; norepinephrine 2 μg/kg) was “decreases the hypertension induced by norepinephrine”. The “overall behavior and reactivities” value (mice [3]; 0.5 mg/kg) was “moderate mydriasis for 2 h”, the “overall behavior and reactivities” value (mice [3]; 2 mg/kg, hydrochloride) was “sedation (2 out of 3 animals) for 0.5 h; also recorded: moderate and brief mydriasis for 0.5 h” and the “overall behavior and reactivities” value (mice [3]; 8 mg/kg, hydrochloride) was “sedation (2 out of 3 animals) for 0.5 h; also recorded: weak and brief mydriasis for 0.5 h”. The “overall behavior and reactivities” value (mice [3]; 32 mg/kg) was “sedation (3/3) 0.25 h after administration, then (2/3) 0.5 h after administration”, the minimal effective dose [4] was no less than 0.25 mg/kg and the “overall behavior and reactivities” value (rats; 0.25 mg/kg) was “moderate mydriasis for 3 h”. For the same compound, the “overall behavior and reactivities” value (rats; 1 mg/kg) was “significant mydriasis for 3 h”, the “overall behavior and reactivities” value (rats; 4 mg/kg, hydrochloride) was “sedation (3/3) for 2 h; also recorded: a decrease in the reactivity to touch and the muscle tone; also recorded: piloerection (1/3) for 1 h; also recorded: significant mydriasis for at least 3 h (mydriasis still being apparent 24 h after administration)” and the “overall behavior and reactivities” value (rats; 16 mg/kg, hydrochloride) was “sedation (3/3) for 3 h; also recorded: a decrease in the reactivity to touch and the muscle tone; also recorded: significant mydriasis for 3 h (the mydriasis still being apparent 24 h after administration)”. For the same compound, the “toxic signs in the animals treated” value (male mice; 64 mg/kg i.p.) was “all the animals treated exhibit salivation, sedation and vasodilation of the tail”, the “toxic signs in the animals treated” value (male mice; 128 mg/kg i.p.) was “all the animals have asphyxiant convulsions” and the “LD0 (maximum non-lethal dose)” value (male mice; intraperitoneal) was “greater than 64 mg/kg”. For the same compound, the “LD100 (minimum dose lethal to all the animals)” value (male mice; intraperitoneal) was roughly 128 mg/kg, the “results in human therapy (depression)” value [5] was “excellent results” and the “action on hypothermia induced by apomorphine” value [6] was “significant antagonism of the hypothermia induced by apomorphine, oxotremorine and reserpine”. For the same compound, the “blood flows through the femoral and vertebral arteries” value (anesthetized dogs [7]) was “decreases the blood flows in the femoral and vertebral arteries”, the antidepressant effects ([8]; i.p.) was “antidepressant effects appearing at all the doses used” and the “peripheral α-adrenergic stimulant effects” value ([8]; i.p.) was “modest effects capable of reflecting peripheral α-adrenergic stimulation”. The sedative effects ([8]; i.p., hydrochloride) was “sedative effects appearing at high doses; also recorded: sedation with hypomotility; also recorded: low-intensity transient hypothermia”, the teratogenic effects (pregnant rabbits) was “devoid of harmful teratogenic effects on pregnant rabbits” and the period of immobility (mice [9]) was “no decrease in the period of immobility due to "despair"”. For the same compound, the “motor recovery after acute hypobaric hypoxia” value (mice [10]) was “a decrease in the motor recovery after hypoxic aggression”, the “action on hypothermia induced by reserpine” value [11] was “significant antagonism of the hypothermia induced by apomorphine, oxotremorine and reserpine” and the “action on hypothermia induced by oxotremorine” value [12] was “significant antagonism of the hypothermia induced by apomorphine, oxotremorine and reserpine”. The “lethal effects of electric shock” value (mice [13]) was “aggravation of the lethal effects of electric shock and gallamine triiodoethylate in mice”, the “time taken for convulsions and death / lethal effects of gallamine triiodoethylate” value (mice [14]) was “aggravation of the lethal effects of electric shock and gallamine triiodoethylate in mice” and the “analogy with β-adrenergic stimulants in the 5-HTP procedure” value ([15]; 5-HTP + MAOI) was “effects analogous to those of isoprenaline”. For the same compound, the “intensity of potentiation of 5-HTP effects” value ([15]; higher doses, 5-HTP + MAOI, male mice) was “the potentiation being very intense at the doses of 8 to 32 mg/kg”, the head twitches [15, 17] was “distinctly potentiate the partial trembling and the head twitches” and the partial trembling [15, 17] was “distinctly potentiate the partial trembling and the head twitches”. For the same compound, the “intergroup aggressiveness (number of fights)” value (mice [16]) was “a decrease in the intergroup aggressiveness in mice”.
With `CC1(C)NCC(O)(c2ccccc2)CN1` [CRL 41 365, 2,2-dimethyl-5-hydroxy-5-phenyl-1,2,3,4,5,6-hexahydropyrimidine] the “action on stereotypies induced by amphetamine” value [1] was “at all the doses studied, this product potentiates the stereotypies induced by amphetamine”, the “overall behavior and reactivities” value (mice [3]; 256 mg/kg) was “sedation, for 1 h; also recorded: a decrease in the heart rate for 1 h; also recorded: a decrease in the reactivity to touch for 0.5 h; also recorded: hypothermia for 3 h” and the “hypothermia, maximum intensity” value (mice [3]; 256 mg/kg, 0.5 h after administration) was -1.6 °C. The “overall behavior and reactivities” value (mice [3]; 16 and 64 mg/kg) was “no distinct modification of the behavior and reactivities compared with the control animals”, the “overall behavior and reactivities” value (rats; 8 mg/kg) was “no distinct modification of the behavior and reactivities compared with the control animals” and the “overall behavior and reactivities” value (rats; 32 mg/kg) was “sedation and a decrease in the breathing rate for 1 h; also recorded: a decrease in the reactivity to touch for 0.5 h”. The “overall behavior and reactivities” value (rats; 128 mg/kg) was “sedation and a decrease in the breathing rate for 3 h; also recorded: a decrease in the reactivity to touch for 1 h”, the “LD0 (maximum non-lethal dose)” value (male mice; intraperitoneal) was “greater than 512 mg/kg” and the sedative effects ([8]; i.p.) was “sedation with a decrease in the reactivities in rats and mice, hypothermia in mice”. The overall neuropsychopharmacological profile ([8]; summary) was “essentially a sedative” and the period of immobility (mice [9]) was “a very moderate decrease in the period of immobility of mice which have been forcibly immersed”.
In the case of `c1ccc(C2=NCCCN2)cc1` [compound No. 2], the teratogenic effect (chicken embryos) is listed as “teratogenic”.
In the case of `Clc1ccc(C2CCNC=N2)cc1` (centres unmarked) [compound No. 18], the teratogenic effect (chicken embryos) is given as “absence of teratogenic effects on chicken embryos”.
